Measured values: patent US10702521B2, “Methods for treating neisseria gonorrhoeae infection with substituted 1,2-dihydro-2A,5,8A-triazaacenaphthylene-3,8-diones” (priority 2014, dated 2020)
Structures can show the parent of a compound that is named as a salt.

System: Mycobacterium tuberculosis H37Rv
Experiment: Mycobacterium tuberculosis H37Rv Inhibition Assay (resazurin MIC)
Format: cell-based
Details: 144 h, H37Rv strain, six days incubation, resazurin fluorescence after 48 hours, read-out: MIC value

| Structure (SMILES) | MIC |
| --- | --- |
| O=c1ccc2ccc(=O)n3c2n1C[C@H]3CN1CCC(NCc2ccc3c(c2)OCCO3)CC1 [Example 30, (1R)-1-({4-[(2,3-Dihydro-1,4-benzodioxin-6-ylmethyl)amino]-1-piperidinyl}methyl)-1,2-dihydro-4H,9H-imidazo[1,2,3-ij]-1,8-naphthyridine-4,9-dione hydrochloride] | < 2 µg/mL |
| O=c1ccc2ccc(=O)n3c2n1C[C@H]3CN1CCC(NCc2cc(F)c3c(c2)OCCO3)CC1 [Example 31, (1R)-1-[(4-{[(8-Fluoro-2,3-dihydro-1,4-benzodioxin-6-yl)methyl]amino}-1-piperidinyl)methyl]-1,2-dihydro-4H,9H-imidazo[1,2,3-ij]-1,8-naphthyridine-4,9-dione hydrochloride] | < 2 µg/mL |
| Cl.Cl.O=C1COc2cc(Cl)c(CNC3CCN(C[C@@H]4Cn5c(=O)ccc6ccc(=O)n4c65)CC3)nc2N1 [Example 32, (1R)-1-[(4-{[(7-Chloro-3-oxo-3,4-dihydro-2H-pyrido[3,2-b][1,4]oxazin-6-yl)methyl]amino}-1-piperidinyl)methyl]-1,2-dihydro-4H,9H-imidazo[1,2,3-ij]-1,8-naphthyridine-4,9-dione dihydrochloride] | < 2 µg/mL |
| O=c1ccc2ncc(=O)n3c2n1C[C@H]3CN1CCC(NCc2cnc3nsnc3c2)CC1 [Example 49, (2R)-2-({4-[([1,2,5]Thiadiazolo[3,4-b]pyridin-6-ylmethyl)amino]-1-piperidinyl}methyl)-1,2-dihydro-3H,8H-2a,5,8a-triazaacenaphthylene-3,8-dione] | < 2 µg/mL |

Same assay, conditions: 144 h, read-out: MIC value, H37Rv strain, six days incubation, resazurin fluorescence after 48 hours

| Structure (SMILES) | MIC |
| --- | --- |
| O=c1ccc2ncc(=O)n3c2n1C[C@H]3CN1CCC(NCc2ccc3nsnc3c2)CC1 [Example 25, (2R)-2-({4-[(2,1,3-Benzothiadiazol-5-ylmethyl)amino]-1-piperidinyl}methyl)-1,2-dihydro-3H,8H-2a,5,8a-triazaacenaphthylene-3,8-dione hydrochloride] | ≤ 1 µg/mL |
| O=c1ccc2ncc(=O)n3c2n1C[C@H]3CN1CCC(NCc2cc3c(cc2F)OCCO3)CC1 [Example 26, (2R)-2-[(4-{[(7-Fluoro-2,3-dihydro-1,4-benzodioxin-6-yl)methyl]amino}-1-piperidinyl)methyl]-1,2-dihydro-3H,8H-2a,5,8a-triazaacenaphthylene-3,8-dione hydrochloride] | ≤ 1 µg/mL |
| O=c1cnc2ccc(=O)n3c2n1C[C@H]3CN1CCC(NCc2cc3c(cn2)OCCC3)CC1 [Example 37, (1R)-1-({4-[(3,4-Dihydro-2H-pyrano[2,3-c]pyridin-6-ylmethyl)amino]-1-piperidinyl}methyl)-1,2-dihydro-3H,8H-2a,5,8a-triazaacenaphthylene-3,8-dione hydrochloride] | < 2 µg/mL |
| O=c1ccc2ncc(=O)n3c2n1C[C@H]3CN1CCC(NCc2ccc3c(c2)OCCO3)CC1 [Example 40, (2R)-2-({4-[(2,3-Dihydro-1,4-benzodioxin-6-ylmethyl)amino]-1-piperidinyl}methyl)-1,2-dihydro-3H,8H-2a,5,8a-triazaacenaphthylene-3,8-dione hydrochloride] | < 2 µg/mL |
| O=c1ccc2ccc(=O)n3c2n1C[C@H]3CN1CCC(NCc2ccc3c(c2)OCCC3)CC1 [Example 50, (1R)-1-({4-[(3,4-Dihydro-2H-chromen-7-ylmethyl)amino]-1-piperidinyl}methyl)-1,2-dihydro-4H,9H-imidazo[1,2,3-if]-1,8-naphthyridine-4,9-dione hydrochloride] | < 2 µg/mL |
| N#Cc1cc(CNC2CCN(C[C@@H]3Cn4c(=O)cnc5ccc(=O)n3c54)CC2)cc2c1OCCO2 [Example 56, 7-{[(1-{[(1R)-3,8-Dioxo-1,2-dihydro-3H,8H-2a,5,8a-triazaacenaphthylen-1-yl]methyl}-4-piperidinyl)amino]methyl}-2,3-dihydro-1,4-benzodioxin-5-carbonitrile hydrochloride] | < 2 µg/mL |

Same assay, conditions: H37Rv strain, six days incubation, resazurin fluorescence after 48 hours, read-out: MIC value

| Structure (SMILES) | MIC |
| --- | --- |
| CC1(NCc2cc3c(cn2)OCCS3)CCN(C[C@@H]2Cn3c(=O)ccc4ccc(=O)n2c43)CC1 [Example 23, (1R)-1-({4-[(2,3-Dihydro[1,4]oxathiino[2,3-c]pyridin-7-ylmethyl)amino]-4-methyl-1-piperidinyl}methyl)-1,2-dihydro-4H,9H-imidazo[1,2,3-ij]-1,8-naphthyridine-4,9-dione hydrochloride] | < 2 µg/mL |
| CC1(NCc2cc3c(cn2)OCS3)CCN(C[C@@H]2Cn3c(=O)ccc4ccc(=O)n2c43)CC1.Cl [Example 24, (1R)-1-({4-Methyl-4-[([1,3]oxathiolo[5,4-c]pyridin-6-ylmethyl)amino]-1-piperidinyl}methyl)-1,2-dihydro-4H,9H-imidazo[1,2,3-ij]-1,8-naphthyridine-4,9-dione hydrochloride] | < 2 µg/mL |
| O=c1ccc2ncc(=O)n3c2n1C[C@H]3CN1CCC(NCc2cc3c(cn2)SCO3)CC1 [Example 28, (2R)-2-({4-[([1,3]Oxathiolo[4,5-c]pyridin-6-ylmethyl)amino]-1-piperidinyl}methyl)-1,2-dihydro-3H,8H-2a,5,8a-triazaacenaphthylene-3,8-dione hydrochloride] | < 2 µg/mL |
| O=C1CSc2ccc(CNC3CCN(C[C@@H]4Cn5c(=O)ccc6ncc(=O)n4c65)CC3)nc2N1 [Example 29, (2R)-2-[(4-{[(3-Oxo-3,4-dihydro-2H-pyrido[3,2-b][1,4]thiazin-6-yl)methyl]amino}-1-piperidinyl)methyl]-1,2-dihydro-3H,8H-2a,5,8a-triazaacenaphthylene-3,8-dione hydrochloride] | < 2 µg/mL |
| Cl.N#Cc1cc(CNC2CCN(C[C@@H]3Cn4c(=O)ccc5ncc(=O)n3c54)CC2)cc2c1OCCO2 [Example 42, 7-{[(1-{[(2R)-3,8-Dioxo-1,2-dihydro-3H,8H-2a,5,8a-triazaacenaphthylen-2-yl]methyl}-4-piperidinyl)amino]methyl}-2,3-dihydro-1,4-benzodioxin-5-carbonitrile hydrochloride] | < 2 µg/mL |
| O=c1ccc2ccc(CNC3CCN(C[C@@H]4Cn5c(=O)ccc6ccc(=O)n4c65)CC3)cc2o1 [Example 59, (1R)-1-[(4-{[(2-Oxo-2H-chromen-7-yl)methyl]amino}-1-piperidinyl)methyl]-1,2-dihydro-4H,9H-imidazo[1,2,3-ij]-1,8-naphthyridine-4,9-dione] | < 2 µg/mL |

Same assay, conditions: read-out: MIC value, H37Rv strain, six days incubation, resazurin fluorescence after 48 hours

| Structure (SMILES) | MIC |
| --- | --- |
| O=c1ccc2ncc(=O)n3c2n1CC3CN1CCC(NCc2cc3c(cn2)OCCS3)CC1 (centres unmarked) [Example 20, 2-({4-[(2,3-Dihydro[1,4]oxathiino[2,3-c]pyridin-7-ylmethyl)amino]-1-piperidinyl}methyl)-1,2-dihydro-3H,8H-2a,5,8a-triazaacenaphthylene-3,8-dione hydrochloride] | < 2 µg/mL |
| O=C1CSc2cnc(CNC3CCN(C[C@@H]4Cn5c(=O)ccc6ccc(=O)n4c65)CC3)nc2N1 [Example 34, (1R)-1-[(4-{[(7-Oxo-6,7-dihydro-1H-pyrimido[5,4-b][1,4]thiazin-2-yl)methyl]amino}-1-piperidinyl)methyl]-1,2-dihydro-4H,9H-imidazo[1,2,3-ij]-1,8-naphthyridine-4,9-dione dihydrochloride] | < 2 µg/mL |
| O=c1cnc2ccc(=O)n3c2n1C[C@H]3CN1CCC(NCc2ccc3c(c2)OCCO3)CC1 [Example 44, (1R)-1-({4-[(2,3-Dihydro-1,4-benzodioxin-6-ylmethyl)amino]-1-piperidinyl}methyl)-1,2-dihydro-3H,8H-2a,5,8a-triazaacenaphthylene-3,8-dione hydrochloride] | < 2 µg/mL |
| O=c1ccc2ccc(=O)n3c2n1C[C@H]3CN1CCC(NCc2nc3cccc(F)c3[nH]2)CC1 [Example 46, (1R)-1-[(4-{[(4-Fluoro-1H-benzimidazol-2-yl)methyl]amino}-1-piperidinyl)methyl]-1,2-dihydro-4H,9H-imidazo[1,2,3-ij]-1,8-naphthyridine-4,9-dione dihydrochloride] | < 2 µg/mL |
